Measurements as given in the Biogen ADME set (Fang et al. 2023).
In brackets after ≈: the same amount, converted by molar mass.

Conditions: for aqueous solubility: pH 6.8

SMILES	MDR1-MDCK efflux ratio	aqueous solubility [µg/mL]	intrinsic clearance, human liver microsomes [mL/min/kg]	intrinsic clearance, rat liver microsomes [mL/min/kg]	fraction unbound, rat plasma	fraction unbound, human plasma
Fc1ccc(F)c(-c2nc(C3CCOCC3)nn2-c2cccnc2)c1	1.33	35.1 (≈ 103 µM)	≤ 4.74	72.8		
Cc1cnn(CC(=O)NCCCn2cc(Cl)cn2)c1	2.34		≤ 4.74	47.2		
CCCn1cc(C(=O)N2CCC(c3n[nH]cc3C(=O)N3CCOCC3)CC2)cn1	15.3	54.1 (≈ 135 µM)	≤ 4.74	11.4		
CC1(C)CC[C@]2(NC(=O)C(C)(F)F)CC[C@]3(C)[C@H](C(=O)C=C4[C@@]5(C)C=C(C#N)C(=O)C(C)(C)[C@@H]5CC[C@]43C)[C@@H]2C1	6.31		76.7	145	0.0088	
Cc1ccnc(NC(=O)CN2CCCC2=O)c1	2.12	55.1 (≈ 236 µM)	≤ 4.74	≤ 10.7		
CCN(CC)C(=O)c1ccc(C2=CC3(CCNCC3)Oc3cccc(O)c32)cc1	20.9		9	65.8		
Cc1ccn(-c2ccc3[nH]c4c(c3c2)CCCC4=O)n1		9.65 (≈ 36.4 µM)	137	512		
CCS(=O)(=O)CC(=O)Nc1cc(C)ccc1C		40.4 (≈ 158 µM)	≤ 4.74	≤ 10.7		
CCCc1nn(CCCN2CCCCC2)c(=O)o1	0.542		13.6	1600		
COc1ccc(OCC(=O)N2CCN(C)CC2)cc1	0.763	52.5 (≈ 199 µM)	≤ 4.74	133		
CSCCc1nc(-c2cc(C)nc3cc(F)ccc23)n(CCO)n1	21.8	24 (≈ 69.4 µM)	16.9	147		
c1cc(CN2CCC(c3ccn[nH]3)CC2)ccn1	1.05	28.2 (≈ 116 µM)	5.91	32.1		
CCOc1ncccc1-c1cc(Cl)ccc1O	0.595	22.7 (≈ 90.9 µM)	59.9	654		
CN(CC1CCCC1)C(=O)Nc1ccccc1N1CCOC1=O	5.03	50.6 (≈ 159 µM)	44.9	541		
COc1cc2c(cc1OC)-c1[nH]nc(NCc3c(Cl)cccc3Cl)c1C2=O	3.05	0.29 (≈ 0.717 µM)				
Cc1cc(C)cc(NC(=O)COC(=O)c2nn(C)c(=O)c3ccccc23)c1		0.97 (≈ 2.65 µM)				
CC(C)(C)c1cc(C(=O)CSc2nncn2-c2ccccc2)cc(C(C)(C)C)c1O			15.9	46.6		
O=C(c1cccnc1)N1CCCC(c2cccc(-c3cccc(Cl)c3)n2)C1 (centres undefined)	0.905	36 (≈ 95.1 µM)	397	1270		
COc1cc(F)ccc1-c1ncccc1NC(=O)C(C)C	3.33	34.6 (≈ 120 µM)	≤ 4.74	25.7		
COc1cc2c(NC3CCN(C(C)C)CC3)nc(N3CCC(F)(F)CC3)nc2cc1OCCCN1CCCC1		64.8 (≈ 119 µM)	≤ 4.74	26.3		
Nc1ccc2[nH]c(CCc3ccccc3)nc2c1	1.27	36.3 (≈ 153 µM)	≤ 4.74	28.8		
O=C(Cc1ccc2c(c1)OCCO2)NC1CCCCCC1	0.619	42.1 (≈ 146 µM)	194	927		
CN(Cc1ccc(Br)o1)C(=O)CN1CCCC1=O	2.67	70 (≈ 222 µM)	≤ 4.74	16.7		
O=C(NNc1ccccc1)c1ccncc1	0.738					
Cc1nsc(Nc2ccccc2)c1C#N	0.367		300	782		
Cc1cc(C)c(S(=O)(=O)Nc2ccc3c(c2)OCO3)c(C)c1-n1cnnn1	24.1	17.8 (≈ 46 µM)				
CCCCOc1nc(N)c2c(n1)N(Cc1cccc(CN3CCCC3)c1)CC(=O)N2	5.49		113	1870		

Second part, the molecule after the results:

MDR1-MDCK efflux ratio	aqueous solubility [µg/mL]	intrinsic clearance, human liver microsomes [mL/min/kg]	intrinsic clearance, rat liver microsomes [mL/min/kg]	fraction unbound, rat plasma	fraction unbound, human plasma	SMILES
0.571	0.9 (≈ 3.06 µM)					Cc1nc(-c2ccccc2)c(C(=O)Nc2ccccc2)s1
0.927	46.5 (≈ 162 µM)	9.98	69.2			CN(C)C(=O)c1ccc(NC(=O)c2cccc(F)c2)cc1
82.1	0.18 (≈ 0.363 µM)					Cc1c(NC(=O)c2cc(C(N)=O)nc3cc(F)ccc23)c(C(F)(F)F)nn1Cc1ccc(C#N)cc1
0.674	6.6 (≈ 25.2 µM)	17.7	261			COc1ccccc1CC(=O)Nc1ncc(C)s1
7.58		≤ 4.74	50.4			COc1ccc(CN2CCN(C(=O)C3CCN(C(=O)C4CC4)CC3)CC2)cc1
	51 (≈ 170 µM)	92.1	1570			c1nc(Nc2ccc3c(c2)OCCCO3)c2sccc2n1
1.98	44.8 (≈ 132 µM)	≤ 4.74	61.5	0.12	0.0156	Cc1nnc(-c2ccc3occ(-c4ccc(S(C)=O)cc4)c3c2)o1 (centres undefined)
0.634	29.2 (≈ 130 µM)	20.2	89			CC(C)(C)c1csc(NC(=O)C2CC2)n1
0.435		28.6	1740			CN(C)CCSc1nnnn1-c1ccc(Br)cc1
17.1	53.4 (≈ 176 µM)	≤ 4.74	51.5			COc1cccc2c1OC(C)(C)[C@@H]1C[C@H]3CNCC[C@H]3O[C@@H]21
		≤ 4.74	≤ 10.7			Cc1nn(C)c2nc(-c3ccncc3)cc(C(=O)O)c12
1.47	74.5 (≈ 216 µM)	≤ 4.74	20			CC(=O)N1CCN(C(=O)c2ccc(-c3ccc(F)cc3)cc2F)CC1
0.884	34.9 (≈ 149 µM)	≤ 4.74	23.1			Cc1cc(C)nc(N(C)CC(=O)NC2CC2)n1
6.78	14.3 (≈ 48.5 µM)	34.2	481			O=c1cc(CN2CCCCc3ccccc32)[nH]c2ccnn12
5.17	52.3 (≈ 123 µM)	≤ 4.74	11			CN1CCC(C(=O)N2CCC(c3cc(C(F)(F)F)c4c(n3)CCNC4=O)CC2)CC1
0.42	27.9 (≈ 114 µM)	29.4	1680			CCCN1CCCN(c2ncccc2C#N)CC1
1.3	50.1 (≈ 187 µM)	14.6	397			Cc1nnc(-c2ccccc2-c2ccc(O)cc2)s1
0.661	58.9 (≈ 162 µM)	174	4850			COC(=O)N1CCCN(C(=O)c2ccc(-c3ccccc3Cl)o2)CC1
0.993	5.11 (≈ 13.5 µM)	13.5	103			Cc1cccc(OC2CN(C(=O)Cn3c(C)nn(-c4ccccc4)c3=O)C2)c1
	49.4 (≈ 172 µM)	19.2	169			CCCN1CCCN(C(=O)c2nc3ccccc3[nH]2)CC1
0.754	57.7 (≈ 193 µM)	18.6	183			COc1cccc(CN(C)c2ncnc3c2CN(C)CC3)c1
0.74		128	1080			CC(C)N1CCN(CCCSc2ccccn2)CC1
0.485	34.9 (≈ 110 µM)	36.1	259			CCc1ncc2c(n1)CN(c1ccnc(-c3ccccc3)n1)CC2
0.471		276	1260			CCCc1ccc(C(=O)CSc2nncs2)cc1
0.791	48.3 (≈ 237 µM)	≤ 4.74	≤ 10.7			CC(=O)N1CCC(c2ccccn2)CC1
	32.2 (≈ 104 µM)	88.8	1710			Cc1nc(C#N)c(C#N)n1Cc1csc(-c2cccs2)n1
4.62	39.1 (≈ 131 µM)	≤ 4.74	78.5			Cc1nc2cc(NC(=O)CCc3c(C)noc3C)ccc2o1
123		28.7	535	0.00114	0.00121	COc1ccc(Cl)cc1C(=O)NCCc1ccc(S(=O)(=O)NC(=O)NC2CCCCC2)cc1
20.4	55.1 (≈ 178 µM)	≤ 4.74	33.4			CC(=O)N1CCCN(C(=O)Cc2csc(C(C)C)n2)CC1
